These results are taken from patent US10768179B2, “Method for predicting responsiveness to cancer treatment using p300-inhibiting compound” (National Cancer Center, priority 2014, dated 2020).

Experiment [1] concerns CBP-mutated lung cancer cells and lymphoma cells. The experiment can be described thus: Sensitivity (survival rate, IC50) of cancer cell lines to p300 inhibitor C646. Format: cell-based. As to the method: A549, H1299, H157, SQ5, H1703, LK2, H520 (NSCLC), RL, Loucy, RC-K8, U2932, Ramos, Farage, SUP-T1, WSU-NHL, VAL, SUDHL5, Jurkat, TE8, and TE10 were separately cultured in RPMI-1640 or DMEM supplemented with 10% fetal bovine serum (FBS). MRC-5 cells (normal fibroblasts), HEK293T cells (immortalized renal epithelial cells), and RPE-1 cells (immortalized retinal epithelial cells) were separately cultured in DMEM supplemented with 10% FBS.
The viability was determined by examining intracellular ATP level using CellTiter-Glo Luminescent Cell Viability Assay kit (Promega Corp.). Each cancer cell line was transfected with siRNA (50 nM) using Lipofectamine RNAiMAX (Invitrogen Corp.). Two days later, the cells were trypsinized, counted, and reseeded in specified numbers in 96-well plate. In order to measure the cell viability, CellTiter-Glo Luminescent Cell Viability Assay kit (Promega Corp.) was added to the cells, and […] was measured using Envision (PerkinElmer, Inc.).

The test system of a further experiment is CBP-mutated cancer cells. As to the kind of experiment: Apoptosis analysis by Annexin V/PI staining after C646 treatment. In kind it is cell-based. The note with it: 48 hours and 96 hours after C646 treatment; FIG. 5B. Here is the method:
In order to detect apoptotic cells by flow cytometry, Annexin V-FITC/PI apoptosis detection kit (F. Hoffmann-La Roche, Ltd.) was used according to the manufacturer's instruction manual. Briefly, the cell pellet was suspended in a 1× binding buffer and incubated with Annexin V-FITC and PI for 20 minutes in the dark. Subsequently, the fluorescence of the cells was analyzed by flow cytometry.

On to `CC1=NN(c2ccc(C(=O)O)cc2)C(=O)/C1=C\c1ccc(-c2cc(C)c(C)cc2[N+](=O)[O-])o1` [C646], for which the “IC50 value for C646” value in experiment [1] (CBP-mutated vs CBP-proficient cancer cells, Student's t test, p<0.01, FIGS. 3B and 3D) was “low tendency relative to CBP-proficient cancer cells”. The “sensitivity to C646 (survival rates)” value in experiment [1] (CBP-mutated vs CBP-proficient lung cancer and lymphoma cell lines, FIGS. 3A and 3C) is “higher sensitivity of the CBP-mutated cancer cells to C646 than that of the CBP-proficient cancer cells”. For the same compound, the “induction of apoptosis (Annexin V stainability)” value with CBP-mutated cancer cells is reported as “specifically suppresses the growth of CBP-mutated cancer cells by inducing apoptosis”.
